Holding throughout (test): small GTPase panel, fluorescent GTP binding blockade – biochemical, Mg buffer, constant GTP, RhoA, Rac1, Cdc42, mechanism study for Ras-family GTPase inhibitor project, profiling panel (AID 2393);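 as to EC50: EC50 marks half change in GTP binding and may reflect gain or loss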
In experiment [1] the target is Transforming protein RhoA (Homo sapiens) (UniProt P61586). The following applies: GST-GTPase beads, BODIPY-GTP binding, flow cytometry, at 100 µM (top of the series).
Experiment [2] concerns the target Cell division control protein 42 homolog (Homo sapiens) (UniProt P60953). The following applies: GST-GTPase beads, BODIPY-GTP binding, flow cytometry; for GTP binding remaining (% of DMSO): at 100 µM (top of the series).
For experiment [3], the target named is Ras-related C3 botulinum toxin substrate 1 (Homo sapiens) (UniProt P63000). The following applies: GST-GTPase beads, BODIPY-GTP binding, flow cytometry; for GTP binding remaining (% of DMSO): at 100 µM (top of the series).

Active and inactive are the calls of the source.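 The calls were made as follows: active = none, because compounds meeting the potency rule were filed inconclusive for hitting several proteins; inconclusive = EC50 under 20 µM with over 15% binding change; inactive = the rest.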

Consider `COc1ccc(C2CC(c3ccc(C)cc3)=NN2c2ccc(S(N)(=O)=O)cc2)cc1` (stereo not drawn), for which the “GTP binding remaining (% of DMSO)” value in experiment [1] (RhoACT), in experiment [1] (RhoWT), in experiment [3] (Rac1ACT) and in experiment [3] (Rac1WT) was “inactive” each time. In addition, the EC50 result in experiment [2] (Cdc42ACT) and in experiment [2] (Cdc42WT) was “inactive” in each case.
Take `Cc1cccc(C2CC(c3ccccc3)=NN2c2ccc(S(N)(=O)=O)cc2)c1` (stereo not drawn): the “GTP binding remaining (% of DMSO)” value in experiment [1] (RhoACT), in experiment [1] (RhoWT), in experiment [3] (Rac1ACT) and in experiment [3] (Rac1WT) was “inactive” in each case. Also, the figures for the EC50 in experiment [2] (Cdc42ACT) and in experiment [2] (Cdc42WT) were 8.35 µM and 7.7 µM, respectively.
Turning to `COc1ccc(C2CC(c3ccccc3C)=NN2c2ccc(S(N)(=O)=O)cc2)cc1` (stereo not drawn), the “GTP binding remaining (% of DMSO)” value in experiment [1] (RhoACT), in experiment [1] (RhoWT), in experiment [2] (Cdc42ACT), in experiment [2] (Cdc42WT), in experiment [3] (Rac1ACT) and in experiment [3] (Rac1WT) was “inactive” throughout.
Consider `COc1ccc(C2CC(c3ccc(Br)cc3)=NN2c2ccc(S(N)(=O)=O)cc2)cc1` (stereo not drawn), for which the “GTP binding remaining (% of DMSO)” value in experiment [1] (RhoACT), in experiment [1] (RhoWT), in experiment [2] (Cdc42ACT), in experiment [2] (Cdc42WT), in experiment [3] (Rac1ACT) and in experiment [3] (Rac1WT) was “inactive” in each case.
As to `NS(=O)(=O)c1ccc(N2N=C(c3ccccc3)CC2c2cccc(Cl)c2)cc1` (stereo not drawn), the “GTP binding remaining (% of DMSO)” value in experiment [1] (RhoACT) and in experiment [1] (RhoWT) was “inactive” each time. The EC50 in experiment [2] (Cdc42ACT) is 5.08 µM; in experiment [2] (Cdc42WT), 3.95 µM. The EC50 result in experiment [3] (Rac1ACT) and in experiment [3] (Rac1WT) was “inactive” throughout.
Regarding `COc1ccc(C2CC(c3ccc(C(F)(F)F)cc3)=NN2c2ccc(S(N)(=O)=O)cc2)cc1` (stereo not drawn), the “GTP binding remaining (% of DMSO)” value in experiment [1] (RhoACT), in experiment [1] (RhoWT), in experiment [2] (Cdc42ACT), in experiment [2] (Cdc42WT), in experiment [3] (Rac1ACT) and in experiment [3] (Rac1WT) was “inactive” in each case.
As to `COc1ccc(C2CC(c3ccc(N(C)C)cc3)=NN2c2ccc(S(N)(=O)=O)cc2)cc1` (stereo not drawn), the “GTP binding remaining (% of DMSO)” value in experiment [1] (RhoACT), in experiment [1] (RhoWT), in experiment [2] (Cdc42ACT), in experiment [2] (Cdc42WT), in experiment [3] (Rac1ACT) and in experiment [3] (Rac1WT) was “inactive” throughout.
Take `COc1ccc(-c2cc(CCC(=O)N3CCN(c4cc(C)ccc4C)CC3)[nH]n2)cc1`: the “GTP binding remaining (% of DMSO)” value in experiment [1] (RhoACT), in experiment [1] (RhoWT), in experiment [2] (Cdc42ACT), in experiment [2] (Cdc42WT), in experiment [3] (Rac1ACT) and in experiment [3] (Rac1WT) was “inactive” in each case.
`Cc1ccccc1C1CC(c2ccccc2)=NN1c1ccc(S(N)(=O)=O)cc1` (stereo not drawn): the “GTP binding remaining (% of DMSO)” value in experiment [1] (RhoACT), in experiment [1] (RhoWT), in experiment [3] (Rac1ACT) and in experiment [3] (Rac1WT) was “inactive” each time. In addition, the EC50 in experiment [2] (Cdc42ACT) was 14.7 µM; in experiment [2] (Cdc42WT) it was 15.3 µM.
Turning to `COc1ccc(C2=NN(c3ccc(S(N)(=O)=O)cc3)C(c3ccc(OC)cc3)C2)cc1` (stereo not drawn), the “GTP binding remaining (% of DMSO)” value in experiment [1] (RhoACT), in experiment [1] (RhoWT), in experiment [2] (Cdc42WT), in experiment [3] (Rac1ACT) and in experiment [3] (Rac1WT) was “inactive” in each case. In experiment [2] (Cdc42ACT), the EC50 entry was “inactive”.
For the compound `COc1ccc(C2CC(C(C)(C)C)=NN2c2ccc(S(N)(=O)=O)cc2)cc1` (stereo not drawn), the “GTP binding remaining (% of DMSO)” value in experiment [1] (RhoACT), in experiment [1] (RhoWT) and in experiment [3] (Rac1WT) was “inactive” in each case. Besides, the EC50 was 16.4 µM in experiment [2] (Cdc42ACT) and 14.4 µM in experiment [2] (Cdc42WT). The EC50 entry in experiment [3] (Rac1ACT) is “inactive”.
Turning to `COc1ccc(C2CC(c3ccccc3)=NN2c2ccc(S(N)(=O)=O)cc2)cc1` (stereo not drawn), the “GTP binding remaining (% of DMSO)” value in experiment [1] (RhoACT), in experiment [1] (RhoWT) and in experiment [3] (Rac1WT) was “inactive” throughout. The results for the EC50 in experiment [2] (Cdc42ACT) and in experiment [2] (Cdc42WT) were 2.73 µM and 2.5 µM, respectively. Also, the EC50 result in experiment [3] (Rac1ACT) was “inactive”.
`COc1ccc(C2CC(c3cccs3)=NN2c2ccc(S(N)(=O)=O)cc2)cc1` (stereo not drawn): the “GTP binding remaining (% of DMSO)” value in experiment [1] (RhoACT), in experiment [1] (RhoWT), in experiment [3] (Rac1ACT) and in experiment [3] (Rac1WT) was “inactive” each time. Further, the EC50 in experiment [2] (Cdc42ACT) was 4.28 µM; in experiment [2] (Cdc42WT), 4.08 µM.
With `COc1ccc(-c2ccc(CCC(=O)N3CCN(c4cc(C)ccc4C)CC3)s2)cc1`, the “GTP binding remaining (% of DMSO)” value in experiment [1] (RhoACT), in experiment [1] (RhoWT), in experiment [2] (Cdc42ACT), in experiment [2] (Cdc42WT), in experiment [3] (Rac1ACT) and in experiment [3] (Rac1WT) was “inactive” each time.
With `NS(=O)(=O)c1ccc(N2N=C(c3ccccc3)CC2c2ccccc2)cc1` (stereo not drawn), the “GTP binding remaining (% of DMSO)” value in experiment [1] (RhoACT), in experiment [1] (RhoWT), in experiment [3] (Rac1ACT) and in experiment [3] (Rac1WT) was “inactive” throughout. The results for the EC50 in experiment [2] (Cdc42ACT) and in experiment [2] (Cdc42WT) were 13.1 µM and 13.4 µM, respectively.
Regarding `COc1ccc(C2CC(c3ccsc3)=NN2c2ccc(S(N)(=O)=O)cc2)cc1` (stereo not drawn), the “GTP binding remaining (% of DMSO)” value in experiment [1] (RhoACT), in experiment [1] (RhoWT) and in experiment [3] (Rac1ACT) was “inactive” in each case. Besides, the figures for the EC50 in experiment [2] (Cdc42ACT) and in experiment [2] (Cdc42WT) were 5.22 µM and 5.19 µM, respectively. Further, the EC50 entry in experiment [3] (Rac1WT) is “inactive”.
In the case of `NS(=O)(=O)c1ccc(N2N=C(c3ccccc3)CC2c2ccccc2Cl)cc1` (stereo not drawn), the “GTP binding remaining (% of DMSO)” value in experiment [1] (RhoACT), in experiment [1] (RhoWT), in experiment [2] (Cdc42ACT), in experiment [3] (Rac1ACT) and in experiment [3] (Rac1WT) was “inactive” each time. Moreover, the EC50 result in experiment [2] (Cdc42WT) is “inactive”.
Take `COc1ccc(C2CC(c3cccc(C(F)(F)F)c3)=NN2c2ccc(S(N)(=O)=O)cc2)cc1` (stereo not drawn): the “GTP binding remaining (% of DMSO)” value in experiment [1] (RhoACT), in experiment [1] (RhoWT), in experiment [2] (Cdc42ACT), in experiment [2] (Cdc42WT), in experiment [3] (Rac1ACT) and in experiment [3] (Rac1WT) was “inactive” each time.
`NS(=O)(=O)c1ccc(N2N=C(c3ccccc3)CC2c2ccc(Cl)cc2)cc1` (stereo not drawn): the “GTP binding remaining (% of DMSO)” value in experiment [1] (RhoACT), in experiment [1] (RhoWT) and in experiment [3] (Rac1ACT) was “inactive” throughout. For the same compound, the concentration for a half-maximal effect (EC50) is 4.22 µM in experiment [2] (Cdc42ACT) and 3.94 µM in experiment [2] (Cdc42WT). Further, the EC50 result in experiment [3] (Rac1WT) is “inactive”.
With `COc1ccc(C2CC(c3ccccc3OC)=NN2c2ccc(S(N)(=O)=O)cc2)cc1` (stereo not drawn), the “GTP binding remaining (% of DMSO)” value in experiment [1] (RhoACT), in experiment [1] (RhoWT), in experiment [3] (Rac1ACT) and in experiment [3] (Rac1WT) was “inactive” in each case. The values for the EC50 in experiment [2] (Cdc42ACT) and in experiment [2] (Cdc42WT) were 5.28 µM and 5.66 µM, respectively.
With `COc1ccc(C2CC(c3cccc(OC)c3)=NN2c2ccc(S(N)(=O)=O)cc2)cc1` (stereo not drawn), the “GTP binding remaining (% of DMSO)” value in experiment [1] (RhoACT), in experiment [1] (RhoWT), in experiment [3] (Rac1ACT) and in experiment [3] (Rac1WT) was “inactive” throughout. Also, the EC50 entry in experiment [2] (Cdc42ACT) was “inactive”. Further, the 50% effective concentration (EC50) in experiment [2] (Cdc42WT) was 1.9 µM.
For the compound `COc1ccc(C2CC(c3cccc(C)c3)=NN2c2ccc(S(N)(=O)=O)cc2)cc1` (stereo not drawn), the “GTP binding remaining (% of DMSO)” value in experiment [1] (RhoACT), in experiment [1] (RhoWT) and in experiment [3] (Rac1WT) was “inactive” each time. The concentration giving a half-maximal response (EC50) is 1.85 µM in experiment [2] (Cdc42ACT) and 2.11 µM in experiment [2] (Cdc42WT). Further, the EC50 result in experiment [3] (Rac1ACT) is “inactive”.
Turning to `COc1ccc(-c2ccc(CCC(=O)N3CCN(c4cc(C)ccc4C)CC3)o2)cc1`, the “GTP binding remaining (% of DMSO)” value in experiment [1] (RhoACT), in experiment [1] (RhoWT), in experiment [2] (Cdc42ACT), in experiment [2] (Cdc42WT), in experiment [3] (Rac1ACT) and in experiment [3] (Rac1WT) was “inactive” in each case.

The record behind these values is PubChem BioAssay AID2393 (NMMLSC, 2010).
